Laboratory results as given in patent EP0531640B1, “Antibiotic LL-E19020 Gamma” (F. HOFFMANN-LA ROCHE AG, priority 1991, dated 1993).

Test: Growth of chickens and efficiency of feed utilization
Assay type: in vivo, Peterson X Arbor Acres chicks
Settings: chicks, 200 ppm in the diet (positive control), day 1 to day 14
Procedure: In this test, one day old Peterson X Arbor Acres chicks are sorted into equal weight groups of 5 males and 5 females per cage. Cages are randomized to treatment groups with six replicates per treatment. The test compound is evaluated 25 ppm in the diet against chicks receiving a non-medicated diet and a diet containing 200 ppm of penicillin as a positive control.
The cages are weighed at day 1 and at day 14 and feed consumption is measured on weigh days. Feed and water are offered ad libitum and lighting and supplemental heat are provided continuously.
The poultry diet employed in the test is as follows:
The vitamin-amino acid premix in the above feed composition is prepared from the following formulation. The expressions of quantity relate to units per kilogram of the finished feed composition.

Penicillin [reference compound]
Weight Gain: 344 g
Weight Gain, % improvement over control: 7.2%
feed conversion: 1.317
feed conversion, % improvement over control: 0.4%
